Measured values reported in patent US7071228B2, “Method of treating musculoskeletal and connective tissue inflammations” (priority 2002, dated 2006).

Tests used:
Type in all cases: in vivo, human
[1] = tested on: osteoarthritis with capsulitis; test: Clinical treatment of a patient, Example 1; conditions: for benefit of earlier therapeutic treatments: before Accutane, Asprin two to five 325 mg pills per day
Protocol: (§1) Example 1 to 3 illustrate clinical effectiveness of the above described treatment method. An initial treatment and a maintenance treatment as described above were prescribed to the patients. It is noted that the patients described in the Examples were in the average weight range, therefore, an average dosage of 40 mg was used. It is noted that all patients were told to totally avoid sun exposure during the initial treatment dosage period and for the first one or two weeks after instituting the maintenance dosage because of sun sensitivity with the use of Accutane®.
A patient in generally good health had the onset of joint complaints in 1988 affecting only the hands. The main location was in the distal interphalangeal joint (IP joint) which had been fractured in 1980. Symptoms were puffiness and swelling with increasing tenderness over the years. The tenderness had become so pronounced that in 1994 they stopped shaking hands because of the pain. In addition they had progressive difficulty making a fist because of swelling and tightness of the fingers.
X-ray examination found thining of joint space and capsular swelling of the interphalangeal joints. Laboratory examination results were normal. The patient was diagnosed with osteoarthritis with capsulitis.
In April 1997 the patient started taking Accutane® (13-cis retanoid acid, Hoffmann-La Roche Inc., Nutley, N.J.) for another medical condition in an initial dosage of about 40 mg Accutane® daily for twenty one days, followed by a maintenance dosage of about 40 mg Accutane® twice a week (on Monday and Friday).

[2] = tested on: inflammatory osteoarthritis and rheumatism; test: Clinical treatment of a patient, Example 2; conditions: for effect of past treatment: person, before Accutane
Protocol: as §1
A person retired Navy Chief Warrant Officer was diagnosed with inflammatory osteoarthritis and rheumatism. The symptoms included joint pains for six to ten years. Initially in 1992 the join pains affected the right hip, and the patient suffered from the hip pain while working. In 1994, the patient developed neck and left shoulder pain. […] Furthermore, the shoulder was diagnosed as a rotator cuff injury. In 1997, the patient's hands became tender when playing golf. The hand condition progressed to puffiness of fingers and a gripping problem with difficulty closing hands. The patient's blood chemistry was normal.
The patient was placed on the 13-cis retanoic acid treatment on May 1, 2002 with an initial dosage about 40 mg Accutane® daily for fourteen days, followed by a maintenance dosage of about 40 mg Accutane® twice a week. […] As a result of such a significant improvement of the physical condition, the patient's golf handicap dropped from eleven (11) to nine (9).

[3] = tested on: osteoarthritis; test: Clinical treatment of a patient, Example 3
Protocol: as §1
A farmer, had more than a ten year history of hand pain involving fingers, and associated with swelling and tenderness of interphalangeal joints. The hand condition made their work and playing golf difficult. The patient was diagnosed with osteoarthritis.
The patient was placed on 13-cis retanoic acid treatment in April of 2001, with an initial dosage of about 40 mg Accutane® daily for twenty one days, followed by a maintenance dosage of about 40 mg Accutane® twice a week. […] The improvements were maintained during a subsequent six month continuation of the maintenance dosage.

[4] = tested on: musculoskeletal and connective tissue inflammations; test: Treatment of patients with initial and maintenance dosage, general findings; conditions: long term use of the low maintenance dosage
Protocol: Preferably, the treatment method further includes two treatment periods: an initial treatment, and a maintenance treatment. First, in the initial treatment, a patient administrates an initial dosage of 13-cis-retinoic acid for a period from about ten days to about five months. Thereafter, the patient administrates a lower maintenance dosage of 13-cis-retinoic acid.
The dosage is determined based on the patient's body weight. The initial dosage is in a range from about 10 mg to 80 mg 13-cis-retinoic acid daily (about 0.14 mg to about 1.1 mg per kilogram (kg) of body weight). For average men having a body weight about 160 lbs (72.6 kg), the average initial dosage is about 40 mg daily. The maintenance dosage is in a range from about 10 mg to 80 mg 13-cis-retinoic acid every three to seven days (about 0.14 mg to about 1.1 mg per kilogram (kg) of body weight). The average maintenance dosage for average men having a body weight about 160 lbs is about 40 mg every three to seven days. The dosages should be adjusted accordingly for children or those who weigh substantially less than or above the average body weight.
Furthermore, no serious adverse side effects were observed by using the described treatment. […]

[5] = about 40 mg daily 21 days, then 40 mg twice a week
[6] = 40 mg daily 14 days, then 40 mg twice a week

## CC1=C(/C=C/C(C)=C/C=C/C(C)=C\C(=O)O)C(C)(C)CCC1 [Accutane, 13-cis-retinoic acid]
[1]; [5]
  cervical spine tenderness: slow improvement
  fibro calcified peri-spinous nodules of cervical spine: dissolution
  range of motion (ROM), cervical spine: increased range of motion
[1]; about 40 mg daily 21 days, then 40 mg twice a week, over the ensuing months
  stiff and painful shoulder condition (old rotator cuff injury, right shoulder): improvement
[1]; continued maintenance dosage
  blood-chemistries and hematology test results: remained normal
  overall physical well being / musculoskeletal infirmities: no longer has any musculoskeletal infirmities
[1]; initial treatment about 40 mg daily
  right shoulder pain during the initial treatment: increased right shoulder pain was noted, which then abated
[1]; long-term maintenance dosage 40 mg twice a week
  physical side effects: No physical side effects have been noted other than dry lips and skin in the early stages
[1]; person, about 40 mg daily for 21 days, then about 40 mg twice a week, over the ensuing months
  hand condition: gradual, but steady improvement
[2]; [6]
  hand puffiness and grip problems: no longer exist
  side effects: minimal side effects
[2]; about 40 mg daily 14 days, then 40 mg twice a week, after total of seven weeks, physical therapy continued
  shoulder pain: completely abated
[2]; after total of seven weeks of treatment
  range of movement (shoulder): returned to normal
[2]; as of August, 2002 (start May 1, 2002)
  neck and hip pains: almost completely abated
[2]; if they play golf three to four days in a row
  hand tenderness: still exhibit a tinge of tenderness
[3]; after ten weeks treatment
  range of movement: improvement
  swelling and tenderness of the fingers: decreased
[3]; human, in vivo
  pre-therapy and follow-up blood tests: normal
[3]; person, about 40 mg daily 21 days, then 40 mg twice a week, after ten weeks treatment
  symptoms: began to improve
[3]; subsequent six month continuation of the maintenance dosage
  persistence of improvements: maintained
[3]; subsided after taking the maintenance dosage
  side effects: no side effects other than dry lips and skin
[4]
  long term effect on musculoskeletal and connective tissue inflammations: provides a long term control

## CC(=O)Oc1ccccc1C(=O)O [Aspirin]
[1]
  benefit of earlier therapeutic treatments: minimal or no benefit
[2]
  effect of past treatment: minimal effect

## CC(C)Cc1ccc(C(C)C(=O)O)cc1 (stereo not drawn) [Motrin, ibuprofen]
[1]
  benefit of earlier therapeutic treatments: minimal or no benefit
[2]
  effect of past treatment: minimal effect

## COc1ccc2cc([C@H](C)C(=O)O)ccc2c1 [Naprosyn, naproxen]
[1]
  benefit of earlier therapeutic treatments: minimal or no benefit
